Converted amounts (≈) assume the structure as drawn.
Tests used:
[1] = Antimitotic activity against human U373 cells assessed as inhibition of cell proliferation by measuring inhibitory dose incubated for 48 hrs by [3H]-thymidine incorporation based liquid scintillation counting method; format: functional; conditions: U373 MG, read-out: ID50 (the source's name)
[2] = Inhibition of cell adhesion of human KM12-HX cells to TNF-alpha stimulated HUVEC cells incubated for 30 mins with HUVEC cells followed by [3H]thymidine labeled KM12-HX cells addition measured after 30 mins by radioactivity assay; format: functional, cell-based
[3] = Cytotoxicity against human JMSU-1 cells assessed as inhibition of cell growth incubated for 72 hrs by MTT assay; format: functional, cell-based; conditions: JMSU-1, 72 h
HL-60 [4] = experiment: Cytotoxicity against human HL-60 cells assessed as inhibition of cell growth incubated for 72 hrs by MTT assay; format: functional, cell-based; conditions: HL-60, 72 h
BV-173 = experiment: Cytotoxicity against human BV-173 cells assessed as inhibition of cell growth incubated for 72 hrs by MTT assay; format: functional, cell-based; conditions: BV-173, 72 h
[5] = Cytotoxicity against human SKW-3 cells assessed as inhibition of cell growth incubated for 72 hrs by MTT assay; format: functional, cell-based; conditions: SKW3, 72 h
MCF7 [6] = experiment: Antiproliferative activity against human MCF7 cells assessed as cell growth inhibition by measuring minimum inhibitory concentration incubated for 48 hrs by MTT assay; format: functional
COLO 205 = experiment: Antiproliferative activity against human COLO 205 cells assessed as cell growth inhibition; format: functional, cell-based
HL-60 [7] = experiment: Antiproliferative activity against human HL-60 cells assessed as cell growth inhibition; format: functional, cell-based
MDA-MB-231 [8] = experiment: Inhibition of cell migration in human MDA-MB-231 cells incubated upto 48 hrs by inverted microscopic analysis; format: functional
MDA-MB-231 [9] = experiment: Cytotoxicity against human MDA-MB-231 cells assessed as cell growth inhibition incubated for 48 hrs by crystal violet staining based spectrofluorimeter assay; format: functional; conditions: MDA-MB-231, 48 h
Ca-Ski = experiment: Cytotoxicity against human Ca-Ski cells assessed as inhibition of cell growth incubated for 24 hrs by MTT assay; format: functional, cell-based
HeLa [10] = experiment: Cytotoxicity against human HeLa cells assessed as inhibition of cell growth incubated for 24 hrs by MTT assay; format: functional, cell-based
MCF7 [11] = experiment: Cytotoxicity against human MCF7 cells assessed as inhibition of cell growth incubated for 30 mins by MTT colorimetric assay; format: functional, cell-based; conditions: MCF7, 0.5 h
SMMC-7721 = experiment: Cytotoxicity against human SMMC-7721 cells assessed as inhibition of cell growth incubated for 30 mins by MTT colorimetric assay; format: functional, cell-based; conditions: SMMC-7721, 0.5 h
MG-63 = experiment: Cytotoxicity against human MG-63 cells assessed as inhibition of cell growth incubated for 30 mins by MTT colorimetric assay; format: functional, cell-based; conditions: MG-63, 0.5 h
MKN-45 = experiment: Cytotoxicity against human MKN-45 cells; format: functional, cell-based
HeLa [12] = experiment: Cytotoxicity against human HeLa cells; format: functional, cell-based
ACHN [13] = experiment: Cytotoxicity against human ACHN cells assessed as cell viability at 5 mM in presence of paclitaxel; format: functional; conditions: read-out: Activity
ACHN [14] = experiment: Cytotoxicity against human ACHN cells; format: functional, cell-based
[15] = Cytotoxicity against human HEK293F cells; format: toxicity, cell-based
ACHN [16] = experiment: Cytotoxicity against human ACHN cells assessed as cell viability; format: functional
C6 = experiment: Antimitotic activity against rat C6 cells assessed as inhibition of cell proliferation by measuring inhibitory dose by [3H]-thymidine incorporation based […]; format: functional; conditions: read-out: ID50 (the source's name)
[17] = Cytotoxicity against mouse BV-2 cells assessed as inhibition of cell growth incubated for 24 hrs by CTG luminescence assay; format: toxicity, cell-based
[18] = Cytotoxicity against rat Highly aggressively proliferating immortalized Microglia cells assessed as inhibition of cell growth incubated for 24 hrs by CTG luminescence assay; format: toxicity, cell-based

Compound `CCCCCCCCO[C@H]1O[C@H](COCC(CO)(CO)CO)[C@@H](O)[C@H](O)[C@H]1NC(C)=O` has an IC50 [1] of 43 µM.
With `CCCCCCCCCCCCCCC(CCCCCCCCCCCCCC)CO[C@@H]1O[C@H](CO)[C@@H](O[C@@H]2O[C@H](CO)[C@H](O)[C@H](OS(=O)(=O)O)[C@H]2O)[C@H](O[C@@H]2O[C@@H](C)[C@@H](O)[C@@H](O)[C@@H]2O)[C@H]1O` the IC50 [2] was 300 µM.
`CCCCCCCCCC[C@@H](CC(=O)O)OC(=O)C[C@H](CCCCCCCCCC)O[C@@H]1O[C@@H](C)[C@H](O)[C@@H](O)[C@H]1O` gave an IC50 [3] of 60 µM, an IC50 (HL-60 [4]) of 67 µM and an IC50 (BV-173) of 50 µM. For the same compound, the IC50 [5] was 54 µM and the MIC (MCF7 [6]) was 6.25 µg/mL (≈ 10.6 µM).
For `CN[C@H]1[C@@H](O)C[C@H](O[C@H]2C/C=C(\C)C/C(C)=C/C=C/CC[C@H](C)CNC(=O)/C=C/C=C/[C@@H]2C)O[C@@H]1C` [VICENISTATIN], the IC50 (COLO 205) was 0.19 µg/mL (≈ 0.379 µM) and the IC50 (HL-60 [7]) was 0.12 µg/mL (≈ 0.24 µM).
In the case of `CC(=O)OC[C@H]1O[C@H]2O[C@@H](C)CCCCCC/C=C\CCCCCCCC(=O)O[C@@H]3[C@@H](O)[C@H](O[C@@H]2[C@@H](O)[C@@H]1O)O[C@H](COC(C)=O)[C@H]3O`, the “inhibition (INH)” value (MDA-MB-231 [8]) is reported as 41.5%, the IC50 (MDA-MB-231 [9]) is reported as 21.7 µM and the IC50 (Ca-Ski) is reported as 25.3 µg/mL (≈ 36.8 µM). The IC50 (HeLa [10]) was 12.2 µg/mL (≈ 17.8 µM).
For `CCCCC[C@@H](CCCCCCCCCC(=O)O[C@H]1[C@H](O[C@@H](CNc2ccc(OC)cc2)[C@@H](O)[C@H](O)[C@H](O)CO)O[C@@H](C)[C@H](OC(=O)[C@@H](C)[C@@H](C)O)[C@H]1O[C@@H]1O[C@@H](C)[C@H](O)[C@@H](O)[C@H]1O)O[C@@H]1OC[C@@H](O)[C@H](O)[C@H]1O[C@@H]1O[C@H](CO)[C@@H](O)[C@H](O)[C@H]1O[C@@H]1O[C@@H](C)[C@H](OC(=O)[C@H](C)[C@@H](C)O)[C@@H](O[C@@H]2O[C@@H](C)[C@H](O)[C@@H](O)[C@H]2O)[C@H]1OC(=O)CCCCCCCCC[C@@H](O)CCC`, the IC50 (MCF7 [11]) was 8.72 µg/mL (≈ 4.72 µM), the IC50 (SMMC-7721) was 9.78 µg/mL (≈ 5.29 µM) and the IC50 (MG-63) was 10.9 µg/mL (≈ 5.9 µM).
For `CCCCCCCC(=O)O[C@H]1[C@H](OC[C@H](O)[C@H](O)[C@@H](O)[C@@H](O)CO)O[C@H](COC(=O)CCCCC)[C@@H](OC(=O)CCCCC)[C@@H]1OC(=O)CCCCC`, the IC50 (MKN-45) was 14.9 µM, the IC50 (HeLa [12]) was 16.7 µM and the viability at 5000 µM (ACHN [13]) was 40.6%. It also gave an IC50 (ACHN [14]) of 17 µM, an IC50 [15] of 18.1 µM and an Activity (ACHN [16]) of 63.8%.
Compound `CO[C@@H]1O[C@H](CO)[C@@H](O[C@@H]2O[C@H](CO)[C@H](OS(=O)(=O)O)[C@H](O)[C@H]2O)[C@H](O[C@@H]2O[C@@H](C)[C@@H](O)[C@@H](O)[C@@H]2O)[C@H]1O` has an IC50 (C6) of 79 µM.
In the case of `CCCCCCC[C@@H](CC(=O)N[C@H](CO)CC(C)C)OC(=O)C[C@H](CCCCCCC)OC(=O)C[C@H](CCCCCCC)O[C@@H]1O[C@@H](C)[C@H](O)[C@@H](O)[C@H]1O`, the IC50 at 24 h [17] is reported as 6.9 µM and the IC50 at 24 h [18] is reported as 22 µM.
